In patent US9598441B2, “Therapeutic compounds and methods” (Wayne State University, priority 2011, dated 2017):

Experiments:
[1] = target: T1, endogenous interaction between CARP-1 and APC-2 in MDA-MB-468 HBC cells (Homo sapiens, UniProt Q8IX12); assay: IP-WB of endogenous CARP-1/APC-2 interaction in treated cells; type: cell-based; settings: escalating doses, 12 h
T1 construct: endogenous in cells; host or cells: MDA-MB-468 human breast cancer cells
T1 sequence (Q8IX12 1-1150): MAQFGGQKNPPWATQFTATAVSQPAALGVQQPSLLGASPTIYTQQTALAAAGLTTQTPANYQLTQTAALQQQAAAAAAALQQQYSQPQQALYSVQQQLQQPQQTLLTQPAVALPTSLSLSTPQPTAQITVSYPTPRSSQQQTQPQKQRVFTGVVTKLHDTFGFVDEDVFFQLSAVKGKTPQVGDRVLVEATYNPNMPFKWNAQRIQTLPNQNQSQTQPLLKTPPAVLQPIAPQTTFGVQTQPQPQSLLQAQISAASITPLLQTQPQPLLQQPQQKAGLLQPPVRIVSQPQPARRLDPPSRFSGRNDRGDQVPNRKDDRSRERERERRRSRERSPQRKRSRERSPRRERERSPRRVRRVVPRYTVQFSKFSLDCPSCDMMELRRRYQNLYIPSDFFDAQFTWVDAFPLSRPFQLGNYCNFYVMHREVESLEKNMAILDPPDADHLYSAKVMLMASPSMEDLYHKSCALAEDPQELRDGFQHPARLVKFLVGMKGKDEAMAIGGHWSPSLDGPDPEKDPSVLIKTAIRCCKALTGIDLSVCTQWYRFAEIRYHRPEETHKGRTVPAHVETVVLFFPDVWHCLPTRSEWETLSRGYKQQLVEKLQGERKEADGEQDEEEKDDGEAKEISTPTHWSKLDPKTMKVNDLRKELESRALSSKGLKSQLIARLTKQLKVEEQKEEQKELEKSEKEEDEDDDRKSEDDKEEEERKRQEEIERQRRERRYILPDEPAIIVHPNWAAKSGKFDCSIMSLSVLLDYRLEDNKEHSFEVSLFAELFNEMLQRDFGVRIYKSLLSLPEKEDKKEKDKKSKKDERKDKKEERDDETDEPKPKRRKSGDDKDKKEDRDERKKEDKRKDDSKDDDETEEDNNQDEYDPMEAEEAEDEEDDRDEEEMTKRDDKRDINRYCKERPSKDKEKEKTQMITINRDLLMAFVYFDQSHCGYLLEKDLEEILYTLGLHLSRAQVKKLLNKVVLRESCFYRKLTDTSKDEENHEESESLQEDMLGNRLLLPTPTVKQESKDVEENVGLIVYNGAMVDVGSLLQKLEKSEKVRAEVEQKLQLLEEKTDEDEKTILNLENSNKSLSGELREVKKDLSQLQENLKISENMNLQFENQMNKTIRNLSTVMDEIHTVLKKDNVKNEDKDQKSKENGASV
Experimental: FIGS. 2A-2D: Identification of small molecular antagonists of CARP-1 binding with APC-2. 2A, FP assay for CARP-1-APC-2 binding. Increasing concentrations of fluorescein-tagged A-epitope peptide [CARP-1 (951-980)] were incubated with the indicated quantities of the Gst-APC-2(685-754) proteins in assay buffer containing 0.01% triton-X100. Gst-NEMO (221-317) was included as a negative control. mP, millipolarization units. 2B, chemical structures of inhibitors of CARP-1 binding with APC-2 identified from HTS. CFM, CARP-1 Functional Mimetic; CFM-1, (Z)-5-(5-bromo-7-methyl-2-oxoindolin-3-ylidene)-2-thioxothiazolidin-4-one; CFM-4,1-(2-chlorobenzyl)-5′-phenyl-3′H-spiro[indoline-3,2′-[1,3,4]thiadiazol]-2-one; CFM-5,5-bromo-1-phenethyl-5′-phenyl-3′H-spiro[indoline-3,2′-[1,3,4]thiadiazol]-2-one. 2C, CFM-4 and CFM-5 bind CARP-1. […] The complexes were analyzed by SDS-PAGE followed by WB with the noted antibodies. […] Immunoprecipitates or the respective cell lysates were analyzed by WB with noted antibodies as in FIG. 1A. […]
Logarithmically growing cells were either untreated or treated with different agents for various time periods. […] The cell growth inhibition was assessed by using MTT assay. […] The assessment of the live cells was derived by measuring the absorbance of the converted dye at wavelength of 570 nm. […]

[2] = system: immortalized, non-tumorigenic mammary epithelial MCF-10A cells; assay: MTT cell viability assay, non-tumorigenic cells; type: cell-based, human
Experimental: Logarithmically growing cells were either untreated or treated with different agents for various time periods. The cells were lysed to prepare protein extracts. IP was carried out by incubating approximately 1 mg of the protein lysate with appropriate antibodies, and the immunoprecipitates or cell lysates were then electrophoresed on 9-12% SDS-polyacrylamide gels, and transferred to nitrocellulose membranes. The membranes were subsequently probed with various antibodies to determine expression/presence of the corresponding proteins. The cell growth inhibition was assessed by using MTT assay. Briefly, MTT (3-[4,5-Dimethylthiazol-2-yl]-2,5diphenyltetrazolium bromide) was dissolved in sterile 1×PBS to prepare a stock solution of 5 mg/ml. […] The assessment of the live cells was derived by measuring the absorbance of the converted dye at wavelength of 570 nm.
To test whether CFMs that interfere with CARP-1 binding with APC-2 modulate cell growth, HBC, colon, prostate, pancreatic cancer, MPM and lymphoma cells, as well as the immortalized, mammary epithelial MCF-10A cells were utilized. The cells were either treated with vehicle (DMSO) or various doses of the respective compound for a period of 72 h, and percent of live/viable cells for each compound was determined relative to the untreated controls as described in Methods.

O=C1N(Cc2ccccc2Cl)c2ccccc2C12NN=C(c1ccccc1)S2 (centres unmarked) [CFM-4, 1-(2-chlorobenzyl)-5′-phenyl-3′H-spiro[indoline-3,2′-[1,3,4]thiadiazol]-2-one]
Binding of CARP-1 with APC-2 in cells (IP-WB) [1]: declined in the presence of CFM-4 in a dose-dependent manner
growth of MCF-10A cells (MTT) [2]: failed to attenuate growth
